Reference: patent US10822376B2, “Biologically active peptides” (Baxalta Incorporated, priority 2008, dated 2020)
Where a SMILES comes first, the peptide text is derived from it. Bridges are numbered along the chain shown (N, C = ends). Roman numbers before positions name the chains, in order. [ ]: non-standard residue; d: D form.

Key:
FVIII deficient plasma = assay: Defined Dual-Pathway Thrombin Generation Assay (DDPTGA, reagent C high), FVIII deficient plasma; assay type: biochemical, human; conditions: for Effect on both peak time and peak IIa of thrombin generation: DDPTGA, comment on Table 10; for Peak IIa FVIII EU / Peak Time FVIII EU: FVIII deficient plasma
Source text: (§1) The intrinsic pathway of thrombin generation may be assayed in a thrombin generation assay by including FXIa and phospholipids. In such an assay, which is similar to an activated partial thromboplastin time (aPTT) test, thrombin generation is solely directed through the intrinsic pathway, and is FVIII dependent. A suitable assay is the Defined Intrinsic Thrombin Generation Assay described below. Alternatively, by employing low concentrations of TF and phospholipids instead of FXIa and phospholipids, thrombin is generated by both the extrinsic (tissue factor) and the intrinsic pathways. This form of the thrombin generation assay is the more physiologic one, as both thrombin generation pathways are involved; it is partially FVIII dependent. A suitable assay is the Defined Dual-Pathway Thrombin Generation Assay.
(§2) Preferably, Reagent C high is used.
(§3) Tissue factor dependency of peak thrombin generation and thrombin peak time was characterised in a composition containing a fixed concentration of phospholipid (namely 3.2 μM). Phospholipid dependency was characterised in a composition containing a fixed concentration of tissue factor (namely 7.2 μM). Peak time (time to peak thrombin generation) was dependent on the concentration of phospholipid or tissue factor. The final version of this assay is as described in the specific description, in which 10 μl reagent C high containing (32 μM phospholipid and 71.6 μM tissue factor) is used in a total volume of 100 μl.
(§4) Further studies were conducted using 3.2 μM phospholipid and 7.2 μM tissue factor in FVIII deficient or inhibited plasma, to characterise the effect on peak thrombin generation and thrombin peak time of various coagulation factor preparations. These studies provided a basis from which to compare the efficacy of the compounds in the assay. Briefly, rFVIII (Recombinate® FVIII from Baxter) was tested at 0, 5, 10, 20, 40 and 80 mU/ml in FVIII deficient plasma. FEIBA was tested at 0, 8, 16, 31, 63 and 125 mU/ml in FVIII inhibited plasma. FVIIa was tested at 0, 0.1, 0.4, 1.6, 6.3 and 25 nM in FVIII inhibited plasma. […] Peak thrombin increased and both the lag time and the thrombin peak time decrease.

FVIII inhibited plasma = assay: Defined Dual-Pathway Thrombin Generation Assay (DDPTGA, reagent C high), FVIII inhibited plasma; assay type: biochemical, human; conditions: for Peak IIa FEIBA EU / Peak IIa FVIIa EU / Peak Time FEIBA EU / Peak Time FVIIa EU: FVIII inhibited plasma; for Activity in the Defined Dual-Pathway Thrombin Generation Assay: summary, FVIII inhibited or deficient plasma
Source text: as §1, §2, §3, §4

[1] = tested on: human FVIII inhibited plasma; assay: Defined Intrinsic Thrombin Generation Assay (DITGA, triggered by FXIa and phospholipids); assay type: biochemical
Source text: as §1
The Defined Intrinsic Thrombin Generation Assay is performed as follows. FVIII activity of human plasma is inhibited by incubating (2 hours, 37° C.) 40 μl of human normal plasma with 10 μl heat inactivated anti-human FVIII plasma raised in goat (600 BU/ml, 6 hours incubated at 56° C.). […] Instead of FVIII-inhibited plasma, FVIII inhibitor patient plasma or several depleted plasmas can be used. The micro-plate is immediately put into a GENios Plus (Tecan) or Safire 2 (Tecan) fluorescence reader and the fluorescence signal (ex 340 nm/em 440 nm) is followed kinetically by reading the plate every 21 seconds.
For calculation of activity equivalent units experiments are performed with dilutions of Factor Eight Inhibitor Bypassing Agent (FEIBA, Baxter AG), Immunate (human FVIII, purified plasma derived) reference standard (Baxter AG) or Recombinate standard (human FVIII, purified recombinant, Baxter AG). A linear fit of the logarithm of FEIBA (FVIII) concentration plotted against thrombin generation time at peak thrombin results in a standard curve. With this curve FEIBA (FVIII) equivalent activity is calculated for a defined peptide concentration. […] Thus, where a concentration of 100 μM is given, the actual concentration in the final assay volume in 40 μM.
Compounds were screened using the “Defined intrinsic thrombin generation assay” in which thrombin generation was quantified in vitro in FVIII-inhibited human plasma in the presence of Factor XIa and phospholipid vesicles. Further compounds were screened in the above assay, and in the “Defined dual-pathway thrombin generation assay” using tissue factor and phospholipids instead of Factor XIa and phospholipids, as described in the specific description.
Various concentrations of each peptide were tested in the defined intrinsic thrombin generation assay using human FVIII inhibited plasma.

Row | Compound | Effect on both peak time and peak IIa of thrombin generation (FVIII deficient plasma) | Peak IIa FVIII EU (FVIII deficient plasma; peptide 100 μM) | Peak Time FVIII EU (FVIII deficient plasma; peptide 100 μM) | Peak IIa FEIBA EU (FVIII inhibited plasma; peptide 100 μM) | Peak IIa FVIIa EU (FVIII inhibited plasma; peptide 100 μM) | Peak Time FEIBA EU (FVIII inhibited plasma; peptide 100 μM) | Peak Time FVIIa EU (FVIII inhibited plasma; peptide 100 μM) | Activity in the Defined Dual-Pathway Thrombin Generation Assay (FVIII inhibited plasma) | Peak IIa FVIII EU (FVIII deficient plasma; peptide 50 μM) | Peak Time FVIII EU (FVIII deficient plasma; peptide 50 μM) | Peak IIa FEIBA EU (FVIII inhibited plasma; peptide 50 μM) | Peak IIa FVIIa EU (FVIII inhibited plasma; peptide 50 μM) | Peak Time FEIBA EU (FVIII inhibited plasma; peptide 50 μM) | Peak Time FVIIa EU (FVIII inhibited plasma; peptide 50 μM) | other results
1 | CC[C@@H](C)[C@@H](NC(=O)[C@@H](CSSC[C@@H](NC(C)=O)C(=O)N[C@@H](C(=O)N[C@H](CCSC)C(=O)N[C@H](Cc1ccccc1)C(=O)N[C@H](Cc1c[nH]c2ccccc12)C(=O)N[C@H](Cc1ccc(O)cc1)C(=O)N[C@H](CC(=O)O)C(=O)N[C@H](CCC(=O)O)C(=O)N[C@H](Cc1ccc(O)cc1)C(=O)N[C@H](CCC(=O)O)C(N)=O)[C@H](C)CC)NC(C)=O)C(=O)N[C@H](CCSC)C(=O)N[C@H](Cc1ccccc1)C(=O)N[C@H](Cc1c[nH]c2ccccc12)C(=O)N[C@H](Cc1ccc(O)cc1)C(=O)N[C@H](CC(=O)O)C(=O)N[C@H](CCC(=O)O)C(=O)N[C@H](Cc1ccc(O)cc1)C(=O)N[C@H](CCC(=O)O)C(N)=O [Peptide B04, Disulphide-Dimer(Ac-cimfwydeye-NH2)2] (I: Ac-[dC][dI][dM][dF][dW][dY][dD][dE][dY][dE]-NH2 / II: Ac-[dC][dI][dM][dF][dW][dY][dD][dE][dY][dE]-NH2; disulfide I:1-II:1) | positively affected | 5.0 mU/ml | 1.6 mU/ml | 13.3 mU/ml | 0.7 nM | BLS (BLS = below lowest standard.) | BLS (BLS = below lowest standard.) | possess activity |  |  |  |  |  |  | Peak IIa FVIII EU (FVIII deficient plasma; peptide 16 μM): 4.4 mU/ml; Peak Time FVIII EU (FVIII deficient plasma; peptide 16 μM): 4.1 mU/ml; Peak IIa FVIII EU (FVIII deficient plasma; peptide 40 μM): 4.8 mU/ml; Peak Time FVIII EU (FVIII deficient plasma; peptide 40 μM): 7.3 mU/ml; Peak IIa FEIBA EU (FVIII inhibited plasma; peptide 16 μM): BLS (BLS = below lowest standard.); Peak IIa FVIIa EU (FVIII inhibited plasma; peptide 16 μM): 0.1 nM; Peak Time FEIBA EU (FVIII inhibited plasma; peptide 16 μM): BLS (BLS = below lowest standard.); Peak Time FVIIa EU (FVIII inhibited plasma; peptide 16 μM): BLS (BLS = below lowest standard.); Peak IIa FEIBA EU (FVIII inhibited plasma; peptide 40 μM): 12.8 mU/ml; Peak IIa FVIIa EU (FVIII inhibited plasma; peptide 40 μM): 0.6 nM; Peak Time FEIBA EU (FVIII inhibited plasma; peptide 40 μM): BLS (BLS = below lowest standard.); Peak Time FVIIa EU (FVIII inhibited plasma; peptide 40 μM): BLS (BLS = below lowest standard.)
2 | Ac-WDLYFEISW-ttds-E [Peptide A15] | positively affected | 5.0 mU/ml | 12.7 mU/ml | 13.6 mU/ml | 0.7 nM | BLS (BLS = below lowest standard.) | BLS (BLS = below lowest standard.) | possess activity | 4.3 mU/ml | 14.4 mU/ml | BLS (BLS = below lowest standard.) | BLS (BLS = below lowest standard.) | BLS (BLS = below lowest standard.) | BLS (BLS = below lowest standard.) | 
3 | Ac-WDLYFEIVW-ttds-K [Peptide A20] |  |  |  |  |  |  |  |  |  |  |  |  |  |  | Thrombin peak time given as FEIBA equivalent activity ([1]; peptide 6.25 μM): 391 mU/ml; Thrombin peak time given as FEIBA equivalent activity ([1]; peptide 12.5 μM): 501 mU/ml; Thrombin peak time given as FEIBA equivalent activity ([1]; peptide 25 μM): 597 mU/ml; Thrombin peak time given as FEIBA equivalent activity ([1]; peptide 50 μM): 873 mU/ml; Thrombin peak time given as FEIBA equivalent activity ([1]; peptide 100 μM): 1101 mU/ml; Activity in the Defined Intrinsic Thrombin Generation Assay ([1]; summary): possess activity
4 | Ac-WSLYFEIVWE [Peptide A14] |  | BLS (BLS = below lowest standard.) | BLS (BLS = below lowest standard.) | BLS (BLS = below lowest standard.) | BLS (BLS = below lowest standard.) | BLS (BLS = below lowest standard.) | BLS (BLS = below lowest standard.) |  | BLS (BLS = below lowest standard.) | BLS (BLS = below lowest standard.) | BLS (BLS = below lowest standard.) | BLS (BLS = below lowest standard.) | BLS (BLS = below lowest standard.) | BLS (BLS = below lowest standard.) | 
5 | PEG5000-ERMEFDVWDLYFEIVW-NH2 [Peptide A18] |  | BLS (BLS = below lowest standard.) | 17.1 mU/ml | BLS (BLS = below lowest standard.) | BLS (BLS = below lowest standard.) | BLS (BLS = below lowest standard.) | BLS (BLS = below lowest standard.) | possess activity | BLS (BLS = below lowest standard.) | BLS (BLS = below lowest standard.) | BLS (BLS = below lowest standard.) | BLS (BLS = below lowest standard.) | BLS (BLS = below lowest standard.) | BLS (BLS = below lowest standard.) | 
